Data set [1] has as its target [^3 H]-Nitrendipine-labeled calcium channels. Put plainly: [3H]-nitrendipine binding assay in rat brain membranes (Ca2+-antagonistic activity). The conditions noted are these: mean of 3 experiments, 95% confidence limits in parenthesis on next line. As to the method: 1. Ca^2+ -Antagonistic activity:
Ca^2+ -Antagonistic activity of the compound was evaluated in [^3 H]-nitrendipine ([^3 H]-NIT) binding assay.

In data set [2] the test system is conscious normotensive rats. Put plainly: Hypotensive activity: blood pressure and heart rate in conscious normotensive rats after oral administration. The data set is classed as in vivo, rat. As to the method: The effect of the compound on arterial blood pressure (systolic, SBP mean, MBP diastolic, DBP) and heart rate (HR) was evaluated in conscious normotensive rats (NTR). Four to six days before the experiments, a polyethylene catheter for recording arterial blood pressure was surgically implanted into the thoracic aorta via the carotid artery under ether anesthesia. Arterial blood pressure and heart rate were recorded under freely moving conditions. The test compounds were suspended in 0.5% methylcellulose solution and administered by oral gavage.
Table 2 summarizes the changes in HR, SBP, MBP and DBP of conscious NTR after oral administration of the test compounds.

A short description of data set [3]: Acute toxicity in mice, intravenous (Up and Down Method). The conditions noted are these: mouse, in vivo, i.v., ICR-SLC mice, n=10. As to the method:
Acute toxicity of the test compound was evaluated according to the method of Brownlee, Hodges and Rosenblatt (The Up and Down Method with Small Samples. J. Am. Stat. As., 48, 262-277, 1953). The […] value of the test compound after intravenous injection to ICR-SLC mice was obtained (Table 3).

For data set [4] the following is noted: based on calcium antagonistic activity; cited from earlier work.

With `COC(=O)C1=C(C)NC(C)=C(C(=O)OC)C1c1cc([N+](=O)[O-])ccc1OCCCCNCCCOc1ccccc1` [Example 1, dimethyl 4-[2-[4-(3-phenoxypropylamino)butoxy]-5-nitrophenyl]-2,6-dimethyl-1,4-dihydropyridine-3,5-dicarboxylate], the inhibitory constant (Ki) in data set [1] stood at 75 nM. Also, the “DBP Change (Δ)” value in data set [2] (30 mg/kg p.o., 1 hr, n=6, initial 103 ± 3.6) is listed as -13.0 mmHg; in data set [2] (30 mg/kg p.o., 2 hr, n=6, initial 103 ± 3.6), -21.3 mmHg; in data set [2] (30 mg/kg p.o., 3 hr, n=6, initial 103 ± 3.6) it was -25.5 mmHg; in data set [2] (30 mg/kg p.o., 4 hr, n=6, initial 103 ± 3.6), -19.0 mmHg; in data set [2] (30 mg/kg p.o., 5 hr, n=6, initial 103 ± 3.6), -16.7 mmHg; in data set [2] (30 mg/kg p.o., 6 hr, n=6, initial 103 ± 3.6), -13.2 mmHg. Besides, the “DBP Change (Δ)” value in data set [2] (30 mg/kg p.o., 8 hr, n=6, initial 103 ± 3.6) is reported as -12.5 mmHg; in data set [2] (30 mg/kg p.o., 10 hr, n=6, initial 103 ± 3.6), -12.3 mmHg; in data set [2] (30 mg/kg p.o., 24 hr, n=6, initial 103 ± 3.6), 0.7 mmHg. Moreover, the “MBP Change (Δ)” value in data set [2] (30 mg/kg p.o., 1 hr, n=6, initial 114 ± 3.6) is reported as -12.1 mmHg; in data set [2] (30 mg/kg p.o., 2 hr, n=6, initial 114 ± 3.6), -20.0 mmHg; in data set [2] (30 mg/kg p.o., 3 hr, n=6, initial 114 ± 3.6) it was -25.1 mmHg; in data set [2] (30 mg/kg p.o., 4 hr, n=6, initial 114 ± 3.6), -18.9 mmHg; in data set [2] (30 mg/kg p.o., 5 hr, n=6, initial 114 ± 3.6), -16.5 mmHg; in data set [2] (30 mg/kg p.o., 6 hr, n=6, initial 114 ± 3.6), -14.4 mmHg. The “MBP Change (Δ)” value is given as -13.5 mmHg in data set [2] (30 mg/kg p.o., 8 hr, n=6, initial 114 ± 3.6); -13.1 mmHg in data set [2] (30 mg/kg p.o., 10 hr, n=6, initial 114 ± 3.6); 0.7 mmHg in data set [2] (30 mg/kg p.o., 24 hr, n=6, initial 114 ± 3.6). For the same compound, the “SBP Change (Δ)” value in data set [2] (30 mg/kg p.o., 1 hr, n=6, initial 137 ± 3.7) is -10.2 mmHg; in data set [2] (30 mg/kg p.o., 2 hr, n=6, initial 137 ± 3.7) it was -17.2 mmHg; in data set [2] (30 mg/kg p.o., 3 hr, n=6, initial 137 ± 3.7), -24.3 mmHg; in data set [2] (30 mg/kg p.o., 4 hr, n=6, initial 137 ± 3.7), -18.7 mmHg; in data set [2] (30 mg/kg p.o., 5 hr, n=6, initial 137 ± 3.7), -16.2 mmHg; in data set [2] (30 mg/kg p.o., 6 hr, n=6, initial 137 ± 3.7), -16.8 mmHg. Moreover, the “SBP Change (Δ)” value is listed as -15.3 mmHg in data set [2] (30 mg/kg p.o., 8 hr, n=6, initial 137 ± 3.7); -14.7 mmHg in data set [2] (30 mg/kg p.o., 10 hr, n=6, initial 137 ± 3.7); 0.7 mmHg in data set [2] (30 mg/kg p.o., 24 hr, n=6, initial 137 ± 3.7). For the same compound, the “HR Change (Δ)” value in data set [2] (30 mg/kg p.o., 1 hr, n=6, initial 361 ± 7.7) came to 43.0 beats/min; in data set [2] (30 mg/kg p.o., 2 hr, n=6, initial 361 ± 7.7), 77.8 beats/min; in data set [2] (30 mg/kg p.o., 3 hr, n=6, initial 361 ± 7.7), 62.2 beats/min; in data set [2] (30 mg/kg p.o., 4 hr, n=6, initial 361 ± 7.7) it was 55.0 beats/min; in data set [2] (30 mg/kg p.o., 5 hr, n=6, initial 361 ± 7.7) it was 55.3 beats/min; in data set [2] (30 mg/kg p.o., 6 hr, n=6, initial 361 ± 7.7), 30.5 beats/min. For the same compound, the “HR Change (Δ)” value in data set [2] (30 mg/kg p.o., 8 hr, n=6, initial 361 ± 7.7) turned out to be 33.0 beats/min; in data set [2] (30 mg/kg p.o., 10 hr, n=6, initial 361 ± 7.7), 22.5 beats/min; in data set [2] (30 mg/kg p.o., 24 hr, n=6, initial 361 ± 7.7), 28.0 beats/min. In data set [3], this compound gave an LD50 of 29 mg/kg.

As to `COC(=O)C1=C(C)NC(C)=C(C(=O)OCCN(C)Cc2ccccc2)C1c1cccc([N+](=O)[O-])c1` (centres unmarked) [Nicardipine], the “cerebro- and/or coronary vasodilating action” value in data set [4] is reported as “exhibits cerebro- and/or coronary vasodilating action”.

`COC(=O)C1=C(C)NC(C)=C(C(=O)OC)C1c1ccccc1[N+](=O)[O-]` [Nifedipine, reference compound]: the “DBP Change (Δ)” value is on record as -20.9 mmHg in data set [2] (3 mg/kg p.o., 0.25 hr, n=8, initial 97 ± 1.8); -19.9 mmHg in data set [2] (3 mg/kg p.o., 0.5 hr, n=8, initial 97 ± 1.8); -20.1 mmHg in data set [2] (3 mg/kg p.o., 0.75 hr, n=8, initial 97 ± 1.8); -18.9 mmHg in data set [2] (3 mg/kg p.o., 1 hr, n=8, initial 97 ± 1.8); -11.8 mmHg in data set [2] (3 mg/kg p.o., 1.5 hr, n=8, initial 97 ± 1.8); -9.4 mmHg in data set [2] (3 mg/kg p.o., 2 hr, n=8, initial 97 ± 1.8). Moreover, the “DBP Change (Δ)” value is given as -2.6 mmHg in data set [2] (3 mg/kg p.o., 3 hr, n=8, initial 97 ± 1.8) and 0.9 mmHg in data set [2] (3 mg/kg p.o., 4 hr, n=8, initial 97 ± 1.8). For the same compound, the “MBP Change (Δ)” value in data set [2] (3 mg/kg p.o., 0.25 hr, n=8, initial 110 ± 1.8) is recorded as -18.7 mmHg; in data set [2] (3 mg/kg p.o., 0.5 hr, n=8, initial 110 ± 1.8) it was -19.1 mmHg; in data set [2] (3 mg/kg p.o., 0.75 hr, n=8, initial 110 ± 1.8) it was -19.5 mmHg; in data set [2] (3 mg/kg p.o., 1.5 hr, n=8, initial 110 ± 1.8) it was -11.5 mmHg; in data set [2] (3 mg/kg p.o., 2 hr, n=8, initial 110 ± 1.8) it was -9.7 mmHg; in data set [2] (3 mg/kg p.o., 3 hr, n=8, initial 110 ± 1.8), -3.5 mmHg. Besides, in data set [2] (3 mg/kg p.o., 4 hr, n=8, initial 110 ± 1.8), the “MBP Change (Δ)” value was 0.5 mmHg. Besides, the “SBP Change (Δ)” value in data set [2] (3 mg/kg p.o., 0.25 hr, n=8, initial 136 ± 2.2) was -14.4 mmHg; in data set [2] (3 mg/kg p.o., 0.5 hr, n=8, initial 136 ± 2.2), -17.6 mmHg; in data set [2] (3 mg/kg p.o., 0.75 hr, n=8, initial 136 ± 2.2), -18.1 mmHg; in data set [2] (3 mg/kg p.o., 1 hr, n=8, initial 136 ± 2.2) it was -17.0 mmHg; in data set [2] (3 mg/kg p.o., 1.5 hr, n=8, initial 136 ± 2.2), -11.0 mmHg; in data set [2] (3 mg/kg p.o., 2 hr, n=8, initial 136 ± 2.2) it was -10.4 mmHg. In addition, the “SBP Change (Δ)” value in data set [2] (3 mg/kg p.o., 3 hr, n=8, initial 136 ± 2.2) was -5.4 mmHg; in data set [2] (3 mg/kg p.o., 4 hr, n=8, initial 136 ± 2.2) it was -0.3 mmHg. Besides, the “HR Change (Δ)” value worked out at 77.4 beats/min in data set [2] (3 mg/kg p.o., 0.25 hr, n=8, initial 349 ± 6.9); 51.6 beats/min in data set [2] (3 mg/kg p.o., 0.5 hr, n=8, initial 349 ± 6.9); 35.4 beats/min in data set [2] (3 mg/kg p.o., 0.75 hr, n=8, initial 349 ± 6.9); 23.0 beats/min in data set [2] (3 mg/kg p.o., 1 hr, n=8, initial 349 ± 6.9); 12.9 beats/min in data set [2] (3 mg/kg p.o., 1.5 hr, n=8, initial 349 ± 6.9); 2.3 beats/min in data set [2] (3 mg/kg p.o., 2 hr, n=8, initial 349 ± 6.9). The “HR Change (Δ)” value is -20.3 beats/min in data set [2] (3 mg/kg p.o., 3 hr, n=8, initial 349 ± 6.9) and -13.4 beats/min in data set [2] (3 mg/kg p.o., 4 hr, n=8, initial 349 ± 6.9). For the same compound, in data set [4], the “cerebro- and/or coronary vasodilating action” value is on record as “exhibits cerebro- and/or coronary vasodilating action”.

The values above are taken from patent US4782160A, “1,4-dihydropyridine derivatives” (Yamanouchi Pharmaceutical Co., Ltd., priority 1986, dated 1988).
